Assay results: patent US7439251B2, “Methods and compositions for treatment of central and peripheral nervous system disorders and novel compounds useful therefor” (Israel Institute for Biological Research, priority 2002, dated 2008)

Columns and labels:
Aβ = experiment: CSF and cortical Aβ in nbm-lesioned (hypocholinergic) rabbits; assay type: in vivo, rabbit; conditions: vs lesioned saline controls
From the text: Twenty-eight female New Zealand White rabbits, about 2.5 kg each (young adults) were used. Twenty-one received lesions of the cholinergic nucleus basalis magnocellularis (nbm). The lesion was accomplished with unilateral i.c.v. injections of an immunotoxin consisting of the ribosomal toxin saporin conjugated to the monoclonal antibody MB20.4, which is directed against the low-affinity neurotophin receptor, p75. The ME20.4 antibody is made against monkey p 75 and also recognizes rabbit p75. The dose of immunotoxin was 32.4 μg in 12 μl; this was delivered to the right lateral ventricle 2 mm lateral to the bregma. Seven animals received i.c.v. injections of sterile normal saline (sham lesion). Animals which received the immunotoxin were divided into 3 groups of 7. […] Another group received physostigmine hemisalicylate in normal saline by s.c. osmotic pump at a daily dose of 3 mg/kg. The third group received twice-daily sterile saline s.c. injections. The animals which received a sham lesion were implanted with s.c. osmotic pumps filled with sterile normal saline. Animals were euthanized 4 weeks after surgery. […] Cerebrospinal fluid was taken from the cisterna magna of all animals at the time of sacrifice; the brain was removed and sliced coronally into 0.5 cm slices. […]

[1] = test system: rat pheochromocytoma cells transfected with the M1 mAChR
Description: Confluent rat pheochromocytoma cells transfected with the M1 mAChR cultures were detached with trypsin, washed and plated in 24well, 6-well, 60-mm or 100-mm plates that were precoated with rat tail collagen (Sigma, Israel). Several experiments were performed in serum-free medium. For 3-(4,5-dimethylthiazol-2-yl)-2,5-diphenyl-tetrazolium bromide (MIT) assay, cells (1.5×10^4) were plated in 96-well collagen-precoated plates, in serum-free medium, with or without various drugs for 24 hours. For differentiation, cells were grown in the presence of 1% FCS and 1% HS, with addition of 50 ng/ml NGF for 7 days, to cause full differentiation. […] After 7 days, cells were washed and the medium was either replaced to serum-free, or cells were detached and replated in serum-free medium. Cells in serum-free medium were treated either with Aβ peptides that were previously “aged” or with H2O2. Tested compounds were added together with the insults for the indicated time, unless otherwise stated.
Cells were grown and treated on glass coverslips. After treatments, cells were fixed in cold methanol for 5 min at −20° C. followed by treatment with cold acetone at 4° C. for 2 min and washing in PBS. The coverslips were fluorescently stained with DAPI (4,6-diamidino-2-phenylindole; 5 mg/ml, Sigma, Israel) an intercalating agent that enables visualization of chromatin condensation in the cell nuclei for 15 min at room temperature. Cells were washed three times with PBS, mounted in a solution of glycerol containing 22 mM 1,4 dizabicyclo(2,2,2)octane (Sigma, Israel) to prevent fading, and viewed for nuclear chromatin morphology with a fluorescence microscope. Apoptotic and viable cells were counted (200 cells per coverslip, each experiment was performed in duplicates).
The TUNEL (Terminal deoxynucleotidyl transferase (TdT) mediated dUTP nick end labeling) method enzymatically labels DNA fragments at the 3′OH ends (representing the DNA strand breaks) with fluorescein-dUPT (Boehringer Mannheim, Germany). Briefly, following treatment, cells grown on Chamber slides were fixed with paraformaldehyde solution (4%) in PBS, pH 7.4 for 30 min at room temperature. Following washing with PBS cells were permeabilized using 0.1% Triton X-100, 0.1% sodium citrate solution, for 2 min on ice (4° C.), washed with PBS and 50 μl of TUNEL reaction mixture was added on each sample for 1 hr at 37° C., in a humidified chamber. Evans Blue reagent (diluted 1:2000 in PBS) was added for 5 min and the slides were viewed with fluorescence microscope.
Cells were differentiated for 7 days and detached from the plates with Trypsin. 10^6 cells were replated in 50-mm collagen-coated plates in serum-free medium in presence or absence of various treatments. 200-g-centrifuged pellets were prepared and resuspended in 300 μl PBS. 4 ml of cold methanol (−20° C.) were added to each test tube and the fixation was carried out for 15 min at −20° C. Cells were washed in PBS, spun and resuspended in 1 ml PBS. Five microliters of Propidium iodide stock solution (Sigma; 10 mg/ml) and 5 μl of 20 mg/ml solution of RNAse A were added for 5-10 min at room temperature. Fluorescence of individual nuclei was measured using Fluorescence Activated Cell Sorter (FACScan; Becton Dickinson Corp.) excited at 488 nm wavelength and collected through 575±21 nm BP filter. The data were analyzed by Cell Quest software computer system. By this method we were able to measure DNA content of the cells (apoptotic cells have less DNA). Cells in G1 phase of cell cycle are after mitosis and have less DNA than cells in G2/M phase (before and during mitosis). Apoptotic cells were identified as the pre-G1 phase.

[2] = CNS safety, general observation and Irwin test in rats; assay type: in vivo, rat
Description: AF292 was evaluated in rodents for possible effects on general behavior and other […] related pharmacological effects.

[3] = mouse, in vivo
[4] = Stability of 10% w/w AF150(S) in paraffin oil; assay type: physicochemical
Description: In another embodiment of the invention, AF150(S) is provided in pharmaceutical acceptable paraffin oil. […] Ph) was examined at 40° C. under air or nitrogen atmosphere, in the presence or absence tocopherol. Samples were analyzed after two months storage. TLC, […] and GC were used to detect and determine the quantity of possible degradation product(s). Color changes were determined in comparison with Paraffin oil with or without tocopherol under the same conditions. AF150(S) was stable in the paraffin oil formulation.

[5] = Aging microcebes, chronic treatment; assay type: in vivo; conditions: chronic treatment for 18 months
From the text: Aging microcebes show similar cognitive deficits and cerebral lesions to those observed in aging humans and in AD patients. Thus this is a good animal model for AD, […] major hallmarks in AD {plaques (Aβ), paired helical filaments (hyperphophorylated and aggregated τ) and cognitive dysfunction}.

[6] = Cardiac electrophysiology and haemodynamics in instrumented awake dogs; assay type: in vivo, Beagle dog; conditions: 5 mg/kg orally, 4 hours
Description: • 1. Astemizole (human ether-a-go-go related gene (HERG) Channel) Binding Assay. […] Isolated Guinea Pig Right Atrium (atrial fibrillation). […] Effects of AF292 (dose 5 mg/kg orally) on cardiac electrophysiological, cardio-haemodynamic in instrumented, awake dogs. Healthy trained and chronically instrumented female Beagle dogs of varying age and ranging in body weight from 9.4 to 12 kg, were used for recording of the cardiovascular parameters: heart rate, diastolic and systolic blood pressure, pressure rate product, LV dp/dt max, LV dp/dt max/pd, LV dp/dt min, cardiac output, stroke volume, systemic vascular resistance and the ECG parameters (PQ-, QRS-, QT-, QTcBazett—(QTcB), QTcFridericia—(QTcF) and QTcVan de Water—(QTcVdW) interval duration and QT-dispersion. During the last 18 hours prior to the experiments, the dogs had no access to food. Water was available ad libitum. At the beginning of each experiment, control values of the various parameters were recorded for at least 30 min. Thereafter, 5 mg/kg of AF292 (n=4) or the corresponding volume of the solvent (n=4) was administered orally by gavage. The various haemodynamic parameters were recorded continuously for 4 hours thereafter.

[7] = test system: Human α-glycoprotein (AGP); experiment: Protein binding, human α-glycoprotein; assay type: in vitro ADME; conditions: 10 μM
Description: Protein binding studies were carried out in human plasma, α1-glycoprotein, human serum […] (HSA), and Dulbecco's Phosphate Buffered Saline (PBS). AF292 was added to a final concentration of 10 μM. […] (μM) and in human α-glycoprotein (AGP), (see Table 1).

For `CC[C@@H]1SC2(CCN(C)CC2)NC1=O` [AF267B, (S)-2-ethyl-8-methyl-1-thia-4,8-diaza-spiro[4.5]decan-3-one], the “CSF sAPPα bands” value (Aβ) was “no significant difference”, the “CSF Aβ (4 kDa band)” value (Aβ; p=0.05) was “noticeable decrease” and the “H2O2-induced apoptosis (DAPI)” value [1] was “prevented”. For the same molecule, the “apoptotic cell death induced by starvation (DAPI)” value [1] was “significantly protect”, the “apoptotic death during starvation (FACS)” value [1] was “protected cells from apoptotic death” and the “β-amyloid increased apoptotic population (FACS)” value [1] was “reduced the apoptotic population significantly”. The “IRWIN TEST, duration of signs” value ([2]; rat, 100 mg/kg, p.o.) was “duration 3-6 hrs.)”, the “IRWIN TEST, onset of signs” value ([2]; rat, 100 mg/kg, p.o.) was “reduced startle response (onset: 0.5 hr;” and the “IRWIN TEST, signs (carriage, apathy, corneal reflex, diarrhea, grooming, urination, salivation, lacrimation, locomotor activity, respiration, startle)” value ([2]; rat, 100 mg/kg, p.o.) was 100 mg/kg: abnormalities of carriage,. The “IRWIN TEST” value ([2]; rat, 1 & 10 mg/kg, p.o.) was 1 & 10 no effect on gross behavior, the “General Observation: Chromodacryorrhea, dose” value ([2]; rat, p.o.) was “Chromodacryorrhea: 100 mg/kg, p.o” and the “General Observation: Convulsion, dose” value ([2]; rat, p.o.) was “Convulsion: 50 mg/kg, p.o”. The “General Observation: Gnawing, dose” value ([2]; rat, p.o.) was “Gnawing; 50 mg/kg, p.o”, the “General Observation: Hypothermia, dose” value ([2]; rat, p.o.) was “Hypothermia: 50 mg/kg, p.o” and the “General Observation: Lacrimation, dose” value ([2]; rat, p.o.) was “Lacrimation: 50 mg/kg, p.o”. For the same molecule, the “General Observation: Mydriasis, dose” value ([2]; rat, p.o.) was “Mydriasis: 25 mg/kg, p.o”, the “General Observation: Salivation, dose” value ([2]; rat, p.o.) was “Salivation: 40 mg/kg, p.o” and the “General Observation: Sedation, dose” value ([2]; rat, p.o.) was “Sedation: 100 mg/kg, p.o”. The “dose at which effects begin (salivation and lacrimation)” value ([2]; rats, po, first hour) was “about 40 mg/kg”, the “Tmax / peak in brain” value [3] was 20 to 30 min and the “time after dosing detected in the brain” value [3] was 2 to 240 min.
With `CC1=NCC2(CCN(C)CC2)S1` [AF150(S), 2,8-Dimethyl-1-thia-3,8-diaza-spiro[4.5]dec-2-ene] the “Stability in the paraffin oil formulation” value ([4]; 40° C., two months) was “stable”, the Color change ([4]; samples containing 0.5% w/w tocopherol) was “color was not developed” and the Color change ([4]; samples without tocopherol) was “slight yellow color”. For the same molecule, the “H2O2-induced apoptosis (DAPI)” value [1] was “prevented”, the “apoptotic cell death induced by starvation (DAPI)” value [1] was “significantly protect” and the “apoptotic death during starvation (FACS)” value [1] was “protected cells from apoptotic death”. The “β-amyloid 25-35 induced apoptosis (TUNEL)” value [1] was “able to block the apoptosis”, the “β-amyloid increased apoptotic population (FACS)” value [1] was “reduced the apoptotic population significantly” and the astrogliosis and inflammation [5] was “decreased astrogliosis and inflammation”. The “cognitive and behavioral impairments” value [5] was “improved the cognitive and behavioral impairments”, the “hyperphosphorylated τ proteins, neurons with aggregated τ, paired helical filaments” value [5] was “decreased hyperphosphorylated τ proteins” and the “Tmax / peak in brain” value [3] was 1 to 10 min. For the same molecule, the brain penetration time ([3]; iv) was 1 min.
In the case of `CC[C@@H]1SC2(CCNCC2)NC1=O` [AF292, (S)-2-Ethyl-1-thia-4,8-diaza-spiro[4.5]decan-3-one], the “physical or behavioral signs” value ([2]; rats, 1, 10, 30, 60, or 100 mg/kg orally) is reported as “No significant physical or behavioral signs”, the “hemodynamic or ECG parameters” value [6] is reported as “no statistically significant and relevant effect” and the “Protein Binding” value [7] is reported as “Human α-glycoprotein (AGP) = 0%”.
